From US10550105B2 (Ribon Therapeutics Inc., priority 2018, dated 2020)

What follows are molecules tested against PARP7 (Homo sapiens (Human), UniProt Q7Z3E1) (assay: Enzymatic assay for inhibition of PARP7: TR-FRET displacement of biotinylated Probe A from the TIPARP active site). Settings: Table A-1.
Type: binding
Summary of the method: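 TR-FRET, ex 320 nm / em 615 and 665 nm. Signal ratio reflects complex formation.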

Chain of PARP7 (Q7Z3E1 whole entry): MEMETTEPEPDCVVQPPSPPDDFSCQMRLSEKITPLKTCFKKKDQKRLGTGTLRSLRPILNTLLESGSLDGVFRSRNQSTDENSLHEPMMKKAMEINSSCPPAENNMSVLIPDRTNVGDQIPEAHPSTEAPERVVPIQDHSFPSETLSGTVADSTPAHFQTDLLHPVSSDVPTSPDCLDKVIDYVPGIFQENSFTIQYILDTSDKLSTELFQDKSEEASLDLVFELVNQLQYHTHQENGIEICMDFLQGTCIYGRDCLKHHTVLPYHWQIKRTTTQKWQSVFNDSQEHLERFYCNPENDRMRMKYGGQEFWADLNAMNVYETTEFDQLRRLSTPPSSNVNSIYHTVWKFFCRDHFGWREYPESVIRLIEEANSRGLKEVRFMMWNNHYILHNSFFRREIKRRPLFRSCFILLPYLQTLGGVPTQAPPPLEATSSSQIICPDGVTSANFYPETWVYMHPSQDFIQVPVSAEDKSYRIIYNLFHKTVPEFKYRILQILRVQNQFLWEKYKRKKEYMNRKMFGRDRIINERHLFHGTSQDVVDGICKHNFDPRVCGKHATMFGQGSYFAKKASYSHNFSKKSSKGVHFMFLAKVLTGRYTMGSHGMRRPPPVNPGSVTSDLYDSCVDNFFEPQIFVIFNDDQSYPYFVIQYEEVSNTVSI

COCC1c2ccccc2CN1c1cn[nH]c(=O)c1Cl (centres unmarked) [Example 207, 4-Chloro-5-(1-(methoxymethyl)isoindolin-2-yl)pyridazin-3(2H)-one] and NCC1c2ccccc2CN1c1cn[nH]c(=O)c1Cl (centres unmarked) [Example 231, 5-(1-(Aminomethyl)isoindolin-2-yl)-4-chloropyridazin-3(2H)-one] cannot be ordered by IC50: no less than 1000 nM for the first, no less than 1000 nM for the second.

O=C(CCNC[C@H]1c2ccccc2CN1c1cn[nH]c(=O)c1C(F)(F)F)N1CCN(c2ccc(C(F)(F)F)cn2)CC1 [Example 630, (R)-5-(1-(((3-Oxo-3-(4-(5-(trifluoromethyl)pyridin-2-yl)piperazin-1-yl)propyl)amino)methyl)isoindolin-2-yl)-4-(trifluoromethyl)pyridazin-3(2H)-one] and O=C(c1cncc(OC[C@H]2c3ccccc3CN2c2cn[nH]c(=O)c2C(F)(F)F)c1)N1CCN(c2ccc(C(F)(F)F)cn2)CC1 [Example 385, (R)-4-(Trifluoromethyl)-5-(1-(((5-(4-(5-(trifluoromethyl)pyridin-2-yl)piperazine-1-carbonyl)pyridin-3-yl)oxy)methyl)isoindolin-2-yl)pyridazin-3(2H)-one] cannot be ordered by IC50: no less than 1000 nM for the first, 100 to 1000 nM for the second.

Going from C[C@@H](O)[C@@H](COCCC(=O)N1CCN(c2ncc(C(F)(F)F)cn2)CC1)Nc1cn[nH]c(=O)c1C(F)(F)F [Example 610, 5-[[(2R,3R)-3-Hydroxy-1-(3-oxo-3-[4-[5-(trifluoromethyl)pyrimidin-2-yl]piperazin-1-yl]propoxy)butan-2-yl]amino]-4-(trifluoromethyl)-2,3-dihydropyridazin-3-one] to O=C(CCOC[C@@H](Nc1cn[nH]c(=O)c1C(F)(F)F)[C@@H]1CCOC1)N1CCN(c2ncc(C(F)(F)F)cn2)CC1 (single isomer, unassigned) [Example 614 Isomer A], the IC50 rises from less than 100 nM to no less than 1000 nM. The first is the more potent here.

N#Cc1ccc(N2CCN(C(=O)CCOC[C@H](CO)Oc3cn[nH]c(=O)c3C(F)(F)F)CC2)nc1 (single isomer, unassigned) [Example 573 Isomer C] and N#Cc1ccc(N2CCN(C(=O)CCO[C@H](CO)COc3cn[nH]c(=O)c3C(F)(F)F)CC2)nc1 (single isomer, unassigned) [Example 573 Isomer D] cannot be ordered by IC50: less than 100 nM for the first, less than 100 nM for the second.

C[C@@H](COCCC(=O)N1CCN(c2ccc(CN)cn2)CC1)Oc1cn[nH]c(=O)c1C(F)(F)F [Example 673, (S)-5-((1-(3-(4-(5-(Aminomethyl)pyridin-2-yl)piperazin-1-yl)-3-oxopropoxy)propan-2-yl)oxy)-4-(trifluoromethyl)pyridazin-3(2H)-one] and O=C(CCOCCOc1cn[nH]c(=O)c1C(F)(F)F)N1CCN(c2ccc(Cl)cn2)CC1 [Example 535, 5-(2-[3-[4-(5-Chloropyridin-2-yl)piperazin-1-yl]-3-oxopropoxy]ethoxy)-4-(trifluoromethyl)-2,3-dihydropyridazin-3-one] cannot be ordered by IC50: less than 100 nM for the first, less than 100 nM for the second.

COc1ccc2c(c1)CN(c1cn[nH]c(=O)c1C(F)(F)F)C2 [Example 174, 5-(5-Methoxyisoindolin-2-yl)-4-(trifluoromethyl)pyridazin-3(2H)-one] and COc1cc2c(cn1)CN(c1cn[nH]c(=O)c1C(F)(F)F)C2 [Example 11, 5-[6-methoxy-1H,2H,3H-pyrrolo[3,4-c]pyridin-2-yl]-4-(trifluoromethyl)-2,3-dihydropyridazin-3-one] cannot be ordered by IC50: less than 100 nM for the first, less than 100 nM for the second.

First: C[C@@H](CC(=O)N1CCN(c2ccc(C#N)cn2)CC1)OCCOc1cn[nH]c(=O)c1C(F)(F)F (single isomer, unassigned) [Example 538 Isomer B]
Second: N#Cc1ccc(N2CCN(C(=O)CCO[C@H]3C[C@@H](CN)N(c4cn[nH]c(=O)c4C(F)(F)F)C3)CC2)nc1 [Example 487, 6-(4-(3-(((3S,5S)-5-(Aminomethyl)-1-(6-oxo-5-(trifluoromethyl)-1,6-dihydropyridazin-4-yl)pyrrolidin-3-yl)oxy)propanoyl)piperazin-1-yl)nicotinonitrile]
The IC50 of the first is lower: less than 100 nM for the first, 100 to 1000 nM for the second. The first is the more potent here.

N#Cc1ccc(N2CCN(C(=O)CCOC[C@@H]3c4ccccc4CN3c3cn[nH]c(=O)c3Cl)CC2)nc1 [Example 413, (S)-6-(4-(3-((2-(5-Chloro-6-oxo-1,6-dihydropyridazin-4-yl)isoindolin-1-yl)methoxy)propanoyl)piperazin-1-yl)nicotinonitrile] and N#Cc1ccc(N2CCN(C(=O)c3ccnc(OC[C@@H]4c5ccccc5CN4c4cn[nH]c(=O)c4C(F)(F)F)c3)CC2)nc1 (single isomer, unassigned) [Example 36 Isomer B] cannot be ordered by IC50: less than 100 nM for the first, less than 100 nM for the second.

Compared with N#Cc1cnc(N2CCN(C(=O)c3cccc(OCC4c5ccccc5CN4c4cn[nH]c(=O)c4C(F)(F)F)c3)CC2)cn1 (centres unmarked) [Example 366, 5-(4-(3-((2-(6-Oxo-5-(trifluoromethyl)-1,6-dihydropyridazin-4-yl)isoindolin-1-yl)methoxy)benzoyl)piperazin-1-yl)pyrazine-2-carbonitrile], CN1CCN(C(=O)c2cccc(OCC3c4ccccc4CN3c3cn[nH]c(=O)c3C(F)(F)F)c2)CC1 (centres unmarked) [Example 362, 5-(1-((3-(4-Methylpiperazine-1-carbonyl)phenoxy)methyl)isoindolin-2-yl)-4-(trifluoromethyl)pyridazin-3(2H)-one] is higher in IC50: less than 100 nM for the first, 100 to 1000 nM for the second.

N#Cc1ccc(N2CCN(C(=O)[C@H]3CC[C@H](OC[C@@H]4CCCN4c4cn[nH]c(=O)c4C(F)(F)F)CC3)CC2)nc1 (single isomer, unassigned; isomer a) [Example 82 Isomer A] and N#Cc1ccc(N2CCN(C(=O)CCOC[C@@H]3CCCN3c3cn[nH]c(=O)c3C(F)(F)F)CC2)cc1 [Example 462, (S)-4-(4-(3-((1-(6-Oxo-5-(trifluoromethyl)-1,6-dihydropyridazin-4-yl)pyrrolidin-2-yl)methoxy)propanoyl)piperazin-1-yl)benzonitrile] cannot be ordered by IC50: less than 100 nM for the first, less than 100 nM for the second.

Compared with CC(=O)Nc1cccc2c1CN(c1cn[nH]c(=O)c1C(F)(F)F)C2 [Example 179, N-(2-(6-Oxo-5-(trifluoromethyl)-1,6-dihydropyridazin-4-yl)isoindolin-4-yl)acetamide], COc1ccnc2c1CN(c1cn[nH]c(=O)c1C(F)(F)F)C2 [Example 337, 5-(4-Methoxy-5,7-dihydro-6H-pyrrolo[3,4-b]pyridin-6-yl)-4-(trifluoromethyl)pyridazin-3(2H)-one] is lower in IC50: 100 to 1000 nM for the first, less than 100 nM for the second.

Cc1cnc(N2CCN(C(=O)CCOC[C@H](C)Nc3cn[nH]c(=O)c3C(F)(F)F)CC2)s1 [Example 733, (S)-5-((1-(3-(4-(5-Methylthiazol-2-yl)piperazin-1-yl)-3-oxopropoxy)propan-2-yl)amino)-4-(trifluoromethyl)pyridazin-3(2H)-one] and C[C@@H](COCCS(=O)(=O)N1CCN(c2ncc(C(C)(C)C)cn2)CC1)Nc1cn[nH]c(=O)c1C(F)(F)F [Example 725, (S)-5-((1-(2-((4-(5-(Tert-butyl)pyrimidin-2-yl)piperazin-1-yl)sulfonyl)ethoxy)propan-2-yl)amino)-4-(trifluoromethyl)pyridazin-3(2H)-one] cannot be ordered by IC50: less than 100 nM for the first, less than 100 nM for the second.

First: C[C@@H](CSCCC(=O)N1CCN(c2ncc(C(F)(F)F)cn2)CC1)Oc1cn[nH]c(=O)c1C(F)(F)F [Example 621A, (S)-5-((1-((3-Oxo-3-(4-(5-(trifluoromethyl)pyrimidin-2-yl)piperazin-1-yl)propyl)thio)propan-2-yl)oxy)-4-(trifluoromethyl)pyridazin-3(2H)-one]
Second: O=C(C[C@@H]1CC[C@@H]([C@@H]2CCCN2c2cn[nH]c(=O)c2C(F)(F)F)O1)N1CCN(c2ncc(C(F)(F)F)cn2)CC1 [Example 149A, 5-[(2S)-2-[(2S,5S)-5-(2-oxo-2-[4-[5-(trifluoromethyl)pyrimidin-2-yl]piperazin-1-yl]ethyl)oxolan-2-yl]pyrrolidin-1-yl]-4-(trifluoromethyl)-2,3-dihydropyridazin-3-one]
The IC50 of the first is higher: 100 to 1000 nM for the first, less than 100 nM for the second. The second is the more potent here.

Compared with COc1ccc2c(c1)C(C)N(c1cn[nH]c(=O)c1C(F)(F)F)C2 (centres unmarked) [Example 332, 5-(6-Methoxy-1-methylisoindolin-2-yl)-4-(trifluoromethyl)pyridazin-3(2H)-one], O=c1[nH]ncc(N2Cc3ccc(OCc4ccncc4)nc3C2)c1C(F)(F)F [Example 321, 5-(2-(Pyridin-4-ylmethoxy)-5,7-dihydro-6H-pyrrolo[3,4-b]pyridin-6-yl)-4-(trifluoromethyl)pyridazin-3(2H)-one] is lower in IC50: 100 to 1000 nM for the first, less than 100 nM for the second. The second is the more potent here.

CSc1c(N2Cc3ccccc3C2)cn[nH]c1=O [Example 189, 5-(Isoindolin-2-yl)-4-(methylthio)pyridazin-3(2H)-one] and COCCOc1ccc2c(c1)CN(c1cn[nH]c(=O)c1Cl)C2 [Example 156, 4-Chloro-5-(5-(2-methoxyethoxy)isoindolin-2-yl)pyridazin-3(2H)-one] fall in the same range of IC50: 100 to 1000 nM for the first, 100 to 1000 nM for the second.

Going from CN(CC1c2ccccc2CN1c1cn[nH]c(=O)c1C(F)(F)F)c1cccc(C(=O)N2CCN(c3ccc(C#N)cn3)CC2)c1 (centres unmarked) [Example 343, 6-(4-(3-(Methyl((2-(6-oxo-5-(trifluoromethyl)-1,6-dihydropyridazin-4-yl)isoindolin-1-yl)methyl)amino)benzoyl)piperazin-1-yl)nicotinonitrile] to N#Cc1ccc(N2CCN(C(=O)c3cccc(OCC4CCN(c5cn[nH]c(=O)c5C(F)(F)F)C4)c3)CC2)nc1 (centres unmarked) [Example 469, 6-(4-(3-((1-(6-Oxo-5-(trifluoromethyl)-1,6-dihydropyridazin-4-yl)pyrrolidin-3-yl)methoxy)benzoyl)piperazin-1-yl)nicotinonitrile], the IC50 falls from no less than 1000 nM to less than 100 nM.

O=C(c1cccc(OCC2c3ccccc3CN2c2cn[nH]c(=O)c2C(F)(F)F)c1)N1CCn2ncnc2C1 (centres unmarked) [Example 398, 5-(1-((3-(5,6,7,8-Tetrahydro-[1,2,4]triazolo[1,5-a]pyrazine-7-carbonyl)phenoxy)methyl)isoindolin-2-yl)-4-(trifluoromethyl)pyridazin-3(2H)-one] and O=C(C[C@H]1CC[C@@H](COc2cn[nH]c(=O)c2C(F)(F)F)O1)N1CCN(c2ncc(Cl)cn2)CC1 (single isomer, unassigned) [Example 565 Isomer C] cannot be ordered by IC50: less than 100 nM for the first, less than 100 nM for the second.

O=C(C[C@H]1CC[C@H](CNc2cn[nH]c(=O)c2C(F)(F)F)O1)N1CCN(c2ccc(C(F)(F)F)cn2)CC1 (single isomer, unassigned) [Example 546 Isomer B] showed an IC50 of less than 100 nM.
